{
  "source": "patent US20220280526A1",
  "about": "“AGENT FOR THE TREATMENT OF PSORIASIS” (EBERHARD KARLS UNIVERSITAET TUEBINGEN MEDIZINISCHE FAKULTAET, priority 2019, published 2022)",
  "key": {"IκBζ (NFKBIZ) expression": {"tested_on": "IκBζ (NFKBIZ) expression", "assay": "IκBζ expression in cytokine-stimulated primary human keratinocytes (immunoblot, qPCR)", "format": "cell-based", "conditions": "1 h cytokine, abemaciclib 16 μM, palbociclib 50 μM", "method": "Gene expression analyses were performed as described. Relative gene expression was analyzed using self-designed primers ordered at Metabion (not shown). Relative mRNA levels were calculated by normalization to the human reference gene RPL37A or the mouse reference gene Actin using the 2-ΔΔCt method."}, "STAT3": {"tested_on": "STAT3", "assay": "STAT3 phosphorylation in primary human keratinocytes (immunoblot)", "format": "cell-based", "conditions": "after stimulation with IL-36α", "from_the_text": "HaCaT cells were maintained in DMEM with 10% FCS and antibiotics. Human primary keratinocytes were freshly isolated from foreskin and maintained in CnT-07S medium with gentamycin (CELLnTEC). Recombinant human IL-36α (aa 6-158) and mouse IL-36α (aa 6-160) were purchased from R&D Systems. Recombinant IL-17A (11340174), TNFα (11343013) and IL-1β (11340013) were ordered from Immunotools. Flagellin (vac-fla) and poly I:C (vac-pic) were purchased from Invivogen. In cell culture experiments, the cytokines were used at the following concentrations, as described previously: IL-36α (100 ng/mL), IL-17A (200 ng/mL), TNFα (10 ng/mL) and IL-1β (100 ng/mL). Flagellin was applied at 10 ng/mL and poly(I:C) was added at a final concentration of 100 ng/mL. […] When indicated, cells were starved for 2 h prior to cytokine treatment, by removing cell culture supplements from the growth medium.\nWestern blot analysis was performed as described before. […]"}, "STAT3 lysine methylation": {"tested_on": "STAT3 lysine methylation", "assay": "Detection of methylated STAT3 by immunoprecipitation in HEK293T cells", "format": "cell-based", "conditions": "STAT3- and EZH2-overexpressing HEK293T cells, 1 h treatment", "procedure": "HEK293T cells were transfected using HBS buffer and CaCl2. HaCaT cells were transfected with Lipofectamine 3000, according to the manufacturer's instructions (Thermo Fisher). 5 μg expression constructs were incubated with 3*10^5 cells for 4 h. 36-48 h post transfection, cells were harvested and analysed.\nWestern blot analysis was performed as described before. The following antibodies were used and purchased from Cell Signaling: anti-IκBζ (9244), anti-phospho-STAT3 at Tyr705 (9145), anti-phospho-STAT3 at Ser727 (9134), anti-STAT3 (12640), anti-p65 (8242), anti-EZH2 (5246), anti-pRB (phospho-RB at Ser807/811; 8516), anti-FoxM1 (5436), anti-H3 (4499), anti-CDK4 (12790), anti-CDK6 (13331), anti-CDK9 (2316), anti-cyclin D1 (2978), anti-cyclin D2 (3741), anti-cyclin D3 (2936), anti-cJUN (9165), anti-H3K27me3 (9733), anti-GAPDH (2118), anti-H3 (9715) and anti-β-actin (3700). Anti-β-Gal (sc377257) and anti-GFP (sc9996) were obtained from Santa Cruz Biotechnology. Anti-pEZH2 at T345 (61242) anti-pEZH2 at T487 (12820) were purchased from Active Motif and anti-pan-methyl-lysine antibody was purchased from Enzo (ADI-KAP-TF121-E). For detection of mouse IκBζ, a self-made antibody raised against peptides […] (SEQ ID NO:3) and […] (SEQ ID NO:4) was applied. […]"}, "[1]": {"tested_on": "STAT3, EZH2, CDK4 and CDK6 binding to the NFKBIZ promoter region", "assay": "Chromatin immunoprecipitation at the NFKBIZ promoter in IL-36α-stimulated HaCaT cells", "format": "cell-based", "conditions": "30 min IL-36α"}, "[2]": {"tested_on": "IMQ-induced psoriasis-like skin inflammation", "assay": "Imiquimod (IMQ)-mediated psoriasis mouse model, topical treatment of ears", "format": "in vivo, C57BL/6 mice", "procedure": "Experiments were conducted in accordance with the German law guidelines of animal care. […] At day 7, mice were sacrificed and analysed. For IL-36α-mediated psoriasis induction, ears of male C57BL/6 mice (8-12 weeks old) were treated by intradermal injections using 1 μg murine IL-36α (aa 8-160, R&D) or PBS control for 5 consecutive days. […] Inhibitors were topically applicated 6 h before intradermal injections of IL-36α or PBS were applied. Mice were sacrificed and analysed at day 6.\nSample preparation was performed as described. The following anti-mouse antibodies from BioLegend were used: anti-CD45 FITC (103107), anti-CD11 b PacificBlue (101223), anti-Ly6G PE (127607), anti-F4/80 APC (123115), anti-CD11c Pacific Blue (117322), anti-MHC-II APC (107613), anti-CD172α PE (144011) and anti-Silec-H PE (129605). Anti-PDCA-1 APC (17-2092-80) and anti-αβTCR PE (HM3628) were purchased from Invitrogen, and anti-γδ-TCR APC (17-5711-82) from Sigma. Data was acquired on a LSRII flow cytometer (Becton Dickson).\nEar sections from mice were fixed in 10% formalin (Carl Roth) and subsequently embedded in paraffin. 5-μm sections were prepared and incubated with the following antibodies from Cell Signaling: pSTAT3 (9145), pRB (8516) and H3K27me3 (9733). For staining of human skin samples, EZH2 antibody (Cell Signaling, 5246) was used. Antigen retrieval was performed in 1 mM EDTA pH 8.0 for pSTAT3, and 10 mM citrate buffer pH 6.0+0.5% Triton X-100 for EZH2, H3K27me3 and pRB. After incubation with peroxidase-coupled secondary antibodies, sections were stained with DAB substrate."}, "[3]": {"conditions": "flow cytometry of ears at day 7"}},
  "note": "Entries after “also recorded” stand apart in the source; their conditions may differ.",
  "data": [
    {"substance": "Abemaciclib mesylate", "values": [
      {"measurement": "IL-36α- or IL-17A/TNFα-mediated induction of IκBζ expression", "setting": "IκBζ (NFKBIZ) expression", "result": "completely blocked; also recorded: abolished"},
      {"measurement": "phosphorylation of STAT3 at threonine 727 (T727)", "setting": "STAT3", "result": "remained unaffected"},
      {"measurement": "phosphorylation of STAT3 at tyrosine 705 (Y705)", "setting": "STAT3", "result": "completely absent"},
      {"measurement": "lysine methylation of STAT3", "setting": "STAT3 lysine methylation", "result": "abrogated"},
      {"measurement": "recruitment of STAT3/EZH2/CDK4/6 multi-protein complex to the NFKBIZ promoter region", "setting": "[1]", "result": "abrogated"},
      {"measurement": "pRB expression in the epidermis (CDK4/6 inhibition)", "setting": "[2]; ear skin sections of treated mice", "result": "loss of pRB"},
      {"measurement": "immune cell infiltration (neutrophils, macrophages, T cells)", "setting": "[2]; [3]", "result": "significantly suppressed"},
      {"measurement": "number of infiltrating plasmacytoid (pDC) and myeloid dendritic cells (mDC)", "setting": "[2]; [3]", "result": "significantly suppressed"},
      {"measurement": "IκBζ expression, phosphorylation of EZH2 at T345 and of STAT3 at Y705 in the skin", "setting": "[2]; immunoblot of skin tissue at day 7", "result": "completely abrogated"},
      {"measurement": "expression of IκBζ target genes (Cxcl2, Cxcl5) and cytokines (Il17a, Il23a) in skin", "setting": "[2]; qPCR of skin samples at day 7", "result": "significantly downregulated"},
      {"measurement": "psoriasis-like skin inflammation (ear thickening, keratinocyte hyperproliferation, immune cell infiltration)", "setting": "[2]; topical daily for 6 days with IMQ, abemaciclib 0.02 mg, CPI-169 0.05 mg per ear/day, analysed day 7", "result": "completely suppressed"},
      {"measurement": "skin penetration of topically applied inhibitor", "setting": "[2]; topical on mouse ear skin", "result": "effectively penetrated"}
    ]}
  ]
}
